From the NIST ThermoML archive (doi:10.1021/je7004374)
± gives the expanded uncertainty stated by the source.

Settings: Liquid; for speed of sound: Sing-around technique in a fixed-path interferometer

OCCCO [propan-1,3-diol]
Settings	mass density [kg/m3]	speed of sound [m/s]
308.15 K, 10000 kPa	1047.8 ± 0.76	–
308.15 K, 15200 kPa	–	1646.6 ± 2.4
308.15 K, 20000 kPa	1051.94 ± 0.95	–
308.15 K, 30000 kPa	1055.93 ± 1.2	–
308.15 K, 30390 kPa	–	1688.4 ± 2.4
308.15 K, 40000 kPa	1059.79 ± 1.4	–
308.15 K, 45590 kPa	–	1728.4 ± 2.4
308.15 K, 50000 kPa	1063.54 ± 1.6	–
308.15 K, 60000 kPa	1067.17 ± 1.9	–
308.15 K, 60790 kPa	–	1766 ± 2.4
308.15 K, 70000 kPa	1070.71 ± 2.2	–
308.15 K, 75990 kPa	–	1802 ± 2.4
308.15 K, 80000 kPa	1074.14 ± 2.5	–
308.15 K, 90000 kPa	1077.49 ± 2.9	–
308.15 K, 91180 kPa	–	1836.6 ± 2.5
308.15 K, 100000 kPa	1080.76 ± 3.2	–
308.15 K, 101320 kPa	–	1858.8 ± 2.5
308.16 K, 101.33 kPa	1043.52 ± 0.6	–
313.12 K, 100 kPa	–	1590.5 ± 1.8
313.12 K, 91180 kPa	–	1827.4 ± 2.5
313.12 K, 101320 kPa	–	1849.7 ± 2.5
313.13 K, 30390 kPa	–	1678 ± 2.4
313.13 K, 45590 kPa	–	1718.2 ± 2.4
313.13 K, 60790 kPa	–	1756.4 ± 2.4
313.13 K, 75990 kPa	–	1792.6 ± 2.4
313.14 K, 15200 kPa	–	1635.8 ± 2.4
313.15 K, 100 kPa	1040.39 ± 0.59	–
313.15 K, 101.33 kPa	1040.36 ± 0.59	1590.5 ± 1.8
313.15 K, 10000 kPa	1044.7 ± 0.74	–
313.15 K, 20000 kPa	1048.89 ± 0.92	–
313.15 K, 30000 kPa	1052.94 ± 1.1	–
313.15 K, 40000 kPa	1056.85 ± 1.4	–
313.15 K, 50000 kPa	1060.65 ± 1.6	–
313.15 K, 60000 kPa	1064.33 ± 1.9	–
313.15 K, 70000 kPa	1067.9 ± 2.2	–
313.15 K, 80000 kPa	1071.38 ± 2.5	–
313.15 K, 90000 kPa	1074.77 ± 2.8	–
313.15 K, 100000 kPa	1078.07 ± 3.1	–
318.15 K, 100 kPa	1037.21 ± 0.58	–
318.15 K, 101.33 kPa	1037.19 ± 0.58	1579.2 ± 1.8
318.15 K, 10000 kPa	1041.57 ± 0.72	–
318.15 K, 20000 kPa	1045.83 ± 0.89	–
318.15 K, 30000 kPa	1049.93 ± 1.1	–
318.15 K, 40000 kPa	1053.9 ± 1.3	–
318.15 K, 50000 kPa	1057.74 ± 1.5	–
318.15 K, 60000 kPa	1061.47 ± 1.8	–
318.15 K, 70000 kPa	1065.09 ± 2.1	–
318.15 K, 80000 kPa	1068.61 ± 2.4	–
318.15 K, 90000 kPa	1072.03 ± 2.7	–
318.15 K, 100000 kPa	1075.37 ± 3	–
318.3 K, 100 kPa	–	1578.9 ± 1.8
318.31 K, 30390 kPa	–	1667.3 ± 2.4
318.31 K, 45590 kPa	–	1708 ± 2.4
318.31 K, 60790 kPa	–	1746.3 ± 2.4
318.31 K, 75990 kPa	–	1783.1 ± 2.4
318.31 K, 91180 kPa	–	1818 ± 2.5
318.31 K, 101320 kPa	–	1840.6 ± 2.5
318.32 K, 15200 kPa	–	1624.6 ± 2.4
323.15 K, 101.33 kPa	1034 ± 0.57	–
328.16 K, 101.33 kPa	1030.79 ± 0.56	–
333.15 K, 101.33 kPa	1027.56 ± 0.55	–
338.15 K, 101.33 kPa	1024.3 ± 0.54	–
343.15 K, 101.33 kPa	1021.01 ± 0.53	–
348.15 K, 101.33 kPa	1017.69 ± 0.52	–
353.15 K, 101.33 kPa	1014.34 ± 0.5	–
358.15 K, 101.33 kPa	1010.96 ± 0.49	–
363.15 K, 101.33 kPa	1007.54 ± 0.48	–
